From ChEMBL document CHEMBL1201862, “PubChem BioAssay data set” (2004) come the findings set out here.

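Briefly, cells in 96-well plates were exposed to five compound concentrations for 48 h, and endpoints were estimated by linear interpolation. GI50: concentration for 50% inhibition of growth.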 The source made the active and inactive calls. Rule as the data show it: active = GI50 up to about 1.1 µM and inactive = higher.

Some test systems named below: CCRF-CEM; Malme-3M; SK-MEL-5; HCT-116; SF-295; K562; RPMI-8226; NCI/ADR-RES; OVCAR-3; NCI-H23; A549; OVCAR-4; HOP-62; A498; CAKI-1; MDA-MB-435; MOLT-4; ACHN; SR; HCC 2998.
What all share (test): NCI tumour cell line growth inhibition, 48 h

Consider `O=C1[C@@H]2[C@@H](CN3CN(c4ccccc4)N=C(c4ccccc4)[C@@]23c2ccccc2)C(=O)N1c1ccccc1`, for which the GI50 is 1.45 µM (inactive) in the experiment with CCRF-CEM; 1.82 µM (inactive) in the experiment on Malme-3M; 16.9 µM (inactive) in the experiment with SK-MEL-5; 5.07 µM (inactive) in the experiment on HCT-116; 15.1 µM (inactive) in the experiment with SF-295; 2.69 µM (inactive) with K562. Moreover, the GI50 is 1.61 µM (inactive) in the experiment with RPMI-8226; 17.5 µM (inactive) in the experiment with NCI/ADR-RES; 7.73 µM (inactive) with OVCAR-3; 8.69 µM (inactive) in the experiment on NCI-H23; 6.11 µM (inactive) in the experiment with A549; 2.61 µM (inactive) with OVCAR-4. Moreover, the GI50 in the experiment with HOP-62 was 14 µM (inactive); with A498, 18.4 µM (inactive); in the experiment on CAKI-1, 0.863 µM (active); with MDA-MB-435, 5.68 µM (inactive); in the experiment with MOLT-4, 2.84 µM (inactive); in the experiment on ACHN, 1.83 µM (inactive). For the same compound, the figures for the GI50 in the experiment on SR and with HCC 2998 were 2.61 µM (inactive) and 25.2 µM (inactive), respectively.
For the compound `Cc1cccc(NC(=S)N/N=C2\C(=O)Nc3ccccc32)c1`, the GI50 with CCRF-CEM is 55 µM (inactive); in the experiment on Malme-3M it was 66.1 µM (inactive); in the experiment with SK-MEL-5 it was 23.3 µM (inactive); in the experiment on HCT-116, 44.9 µM (inactive); in the experiment with SF-295 it was 56.9 µM (inactive); in the experiment with K562, 65.8 µM (inactive). For the same compound, the GI50 in the experiment with RPMI-8226 was > 100 µM (inactive); with NCI/ADR-RES, 29.9 µM (inactive); in the experiment with OVCAR-3, 32.3 µM (inactive); with NCI-H23, > 100 µM (inactive); with A549 it was 59.4 µM (inactive); in the experiment with OVCAR-4 it was 34.9 µM (inactive). Also, the GI50 in the experiment on HOP-62 was 62.7 µM (inactive); in the experiment on A498, 29.7 µM (inactive); in the experiment with CAKI-1 it was 38.2 µM (inactive); in the experiment on MDA-MB-435, 80.4 µM (inactive); with MOLT-4, 59 µM (inactive); in the experiment with ACHN, 43.1 µM (inactive). Further, the GI50 in the experiment with SR is 70.3 µM (inactive); with HCC 2998, > 100 µM (inactive).
Take `COc1cc([C@@H]2c3cc4c(cc3[C@@H](Nc3ccc(Cl)cc3C(=O)c3ccccc3Cl)[C@H]3COC(=O)[C@H]23)OCO4)cc(OC)c1OC`: the GI50 with CCRF-CEM was 0.101 µM (active); in the experiment with Malme-3M, 0.143 µM (active); in the experiment on SK-MEL-5, 0.102 µM (active); in the experiment on HCT-116, 0.0738 µM (active); in the experiment on SF-295, 0.121 µM (active); in the experiment with K562, 0.106 µM (active). Also, the GI50 is 0.173 µM (active) with RPMI-8226; 0.173 µM (active) with NCI/ADR-RES; 0.332 µM (active) in the experiment with OVCAR-3; 0.166 µM (active) in the experiment with NCI-H23; 0.34 µM (active) with A549; > 45.8 µM (inactive) in the experiment on OVCAR-4. Also, the GI50 is 0.443 µM (active) in the experiment on HOP-62; 0.0989 µM (active) in the experiment with A498; 0.152 µM (active) in the experiment with CAKI-1; 0.0661 µM (active) in the experiment with MDA-MB-435; 0.142 µM (active) with MOLT-4; 0.125 µM (active) with ACHN. In addition, the results for the GI50 in the experiment on SR and in the experiment with HCC 2998 were 0.0713 µM (active) and 0.373 µM (active), respectively.
In the case of `CC(CO)(CO)N1C(=O)C2C3C=CC(C3)C2C1=O` (stereo not given), the GI50 in the experiment with CCRF-CEM, in the experiment with Malme-3M, in the experiment on SK-MEL-5, in the experiment on HCT-116, in the experiment with SF-295 and in the experiment on K562 was > 100 µM (inactive) each time. Moreover, the GI50 in the experiment on RPMI-8226, with NCI/ADR-RES, in the experiment on OVCAR-3, in the experiment on NCI-H23, in the experiment with A549 and in the experiment on OVCAR-4 was > 100 µM (inactive) in each case. Besides, the GI50 with HOP-62, with A498, in the experiment with CAKI-1, in the experiment on MDA-MB-435, in the experiment on MOLT-4 and in the experiment on ACHN was > 100 µM (inactive) throughout. The GI50 with SR and in the experiment on HCC 2998 was > 100 µM (inactive) each time.
Take `CCn1c(SCC(=O)N/N=C/c2ccccc2)nc2ccccc2c1=O`: the GI50 with CCRF-CEM was 9.89 µM (inactive); in the experiment on Malme-3M, 12.5 µM (inactive); in the experiment on SK-MEL-5, 7.94 µM (inactive); in the experiment on HCT-116, 5.42 µM (inactive); in the experiment on SF-295, 4.7 µM (inactive); in the experiment with K562, 1.87 µM (inactive). In addition, the GI50 with RPMI-8226 is 14.2 µM (inactive); in the experiment on NCI/ADR-RES, 4.05 µM (inactive); with OVCAR-3 it was 10 µM (inactive); in the experiment on NCI-H23 it was 31.8 µM (inactive); with A549, 4.89 µM (inactive); in the experiment with OVCAR-4, 14.1 µM (inactive). Further, the GI50 in the experiment on HOP-62 was 12.8 µM (inactive); with A498, 8.22 µM (inactive); in the experiment on CAKI-1 it was 9.08 µM (inactive); in the experiment with MDA-MB-435 it was 2.11 µM (inactive); in the experiment on MOLT-4, 5.14 µM (inactive); with ACHN it was 36 µM (inactive). For the same compound, the GI50 in the experiment with SR is 0.478 µM (active); with HCC 2998, 5.22 µM (inactive).
Regarding `COc1ccc2cc(CN3CCC(C4CCN(Cc5ccc6cc(OC)ccc6c5)CC4)CC3)ccc2c1`, the GI50 in the experiment with CCRF-CEM was 2.16 µM (inactive); in the experiment with Malme-3M it was 2.17 µM (inactive); with SK-MEL-5 it was 1.66 µM (inactive); with HCT-116 it was 2.39 µM (inactive); in the experiment on SF-295, 2.99 µM (inactive); in the experiment with K562, 0.455 µM (active). Moreover, the GI50 in the experiment with RPMI-8226 was 1.52 µM (inactive); in the experiment on NCI/ADR-RES, 6.82 µM (inactive); in the experiment on OVCAR-3, 3.1 µM (inactive); in the experiment with NCI-H23, 17.1 µM (inactive); in the experiment on A549, 24.9 µM (inactive); with OVCAR-4 it was 4.42 µM (inactive). Also, the GI50 in the experiment with HOP-62 was 6.43 µM (inactive); in the experiment on A498, 8.43 µM (inactive); with CAKI-1, 2.73 µM (inactive); with MDA-MB-435, 1.69 µM (inactive); in the experiment with MOLT-4, 2.2 µM (inactive); with ACHN it was 7.35 µM (inactive). The GI50 with SR is 1.24 µM (inactive); in the experiment with HCC 2998, 0.18 µM (active).
For the compound `CSc1nc2c(c(=O)n1C)N=C(c1ccc(Cl)cc1)CC(c1ccccc1)N2` (stereo not given), the GI50 was 26 µM (inactive) in the experiment on CCRF-CEM; 16.1 µM (inactive) in the experiment on Malme-3M; 19.5 µM (inactive) with SK-MEL-5; 27.2 µM (inactive) in the experiment with HCT-116; 21.3 µM (inactive) in the experiment on SF-295; 20.7 µM (inactive) with K562. In addition, the GI50 in the experiment with RPMI-8226 is 22 µM (inactive); with NCI/ADR-RES, 17.4 µM (inactive); in the experiment with OVCAR-3 it was 33.7 µM (inactive); in the experiment with NCI-H23, 24.1 µM (inactive); in the experiment on A549, 25.2 µM (inactive); with OVCAR-4, 6.84 µM (inactive). The GI50 was 27.6 µM (inactive) in the experiment with HOP-62; 33 µM (inactive) in the experiment on A498; 24.4 µM (inactive) in the experiment on CAKI-1; 34.4 µM (inactive) with MDA-MB-435; 14.1 µM (inactive) in the experiment with MOLT-4; 19 µM (inactive) with ACHN. For the same compound, the GI50 in the experiment with SR was 29.9 µM (inactive); in the experiment on HCC 2998, 24.6 µM (inactive).
Regarding `CCCc1[nH]c2ccccc2c1-c1c(CCC)[nH]c2ccccc12`, the GI50 in the experiment on CCRF-CEM is 8.26 µM (inactive); in the experiment with Malme-3M it was 16 µM (inactive); in the experiment with SK-MEL-5, 10.2 µM (inactive); in the experiment on HCT-116, 4.6 µM (inactive); in the experiment with SF-295 it was 15.7 µM (inactive); in the experiment with K562, 7.74 µM (inactive). Moreover, the GI50 in the experiment on RPMI-8226 is 19.7 µM (inactive); in the experiment on NCI/ADR-RES, 10.1 µM (inactive); in the experiment on OVCAR-3 it was 8.2 µM (inactive); in the experiment with NCI-H23 it was 8.05 µM (inactive); with A549, 27.7 µM (inactive); with OVCAR-4 it was 21.5 µM (inactive). Further, the GI50 in the experiment with HOP-62 was 16.9 µM (inactive); in the experiment on A498, > 86.1 µM (inactive); with CAKI-1, 18.6 µM (inactive); in the experiment with MDA-MB-435 it was 11.9 µM (inactive); in the experiment with MOLT-4 it was 30.1 µM (inactive); in the experiment with ACHN it was 16.9 µM (inactive). Besides, the GI50 with SR is 19 µM (inactive); in the experiment with HCC 2998, 22.9 µM (inactive).
For `COc1cc(C=O)cc(/C=N/c2ccc(S(N)(=O)=O)cc2)c1O`, the GI50 is 9.77 µM (inactive) in the experiment with CCRF-CEM; 2.88 µM (inactive) in the experiment with Malme-3M; 4.91 µM (inactive) in the experiment with SK-MEL-5; 18.2 µM (inactive) in the experiment with HCT-116; 3.64 µM (inactive) in the experiment with SF-295; 47 µM (inactive) in the experiment on K562. For the same compound, the GI50 in the experiment on RPMI-8226 is 7.13 µM (inactive); in the experiment on NCI/ADR-RES, 10.5 µM (inactive); in the experiment with OVCAR-3, 26.1 µM (inactive); in the experiment on NCI-H23, > 100 µM (inactive); in the experiment with A549, 44.1 µM (inactive); with OVCAR-4 it was > 100 µM (inactive). Besides, the GI50 is 13.5 µM (inactive) in the experiment with HOP-62; 23.8 µM (inactive) in the experiment with A498; 7.38 µM (inactive) in the experiment on CAKI-1; 9.2 µM (inactive) in the experiment on MDA-MB-435; 18 µM (inactive) in the experiment on MOLT-4; 3.82 µM (inactive) in the experiment with ACHN. The GI50 is 6.11 µM (inactive) with SR and 19.3 µM (inactive) in the experiment on HCC 2998.
As for `COc1ccc(/C=c2/s/c(=C(\C#N)c3nc4ccccc4[nH]3)n(-c3ccccc3)c2=O)cc1`, the GI50 in the experiment on CCRF-CEM is > 100 µM (inactive); with Malme-3M it was > 42.4 µM (inactive); in the experiment on SK-MEL-5, > 92.7 µM (inactive); in the experiment with HCT-116, 24.7 µM (inactive); with SF-295, 15.3 µM (inactive); in the experiment on K562, > 100 µM (inactive). For the same compound, the GI50 was > 100 µM (inactive) with RPMI-8226; 5.06 µM (inactive) with NCI/ADR-RES; 26.8 µM (inactive) in the experiment on OVCAR-3; 22.6 µM (inactive) in the experiment on NCI-H23; 51.2 µM (inactive) in the experiment on A549; 6.92 µM (inactive) in the experiment with OVCAR-4. In addition, the GI50 in the experiment with HOP-62 is 17.1 µM (inactive); with A498 it was 24.8 µM (inactive); in the experiment on CAKI-1, > 69.3 µM (inactive); with MDA-MB-435 it was 31.8 µM (inactive); in the experiment with MOLT-4, 53.6 µM (inactive); with ACHN, > 82.4 µM (inactive). The GI50 is > 100 µM (inactive) in the experiment with SR and > 82.8 µM (inactive) in the experiment on HCC 2998.
